Reference: article PMC8398432 (Molecules, 2021)
Like-named read-outs stand apart in the source and are kept apart here.

Legend:
mouse α4β2 nAChRs = target: T1, mouse α4β2 nAChRs (Mus musculus, UniProt O70174+Q9ERK7); assay: Calcium 6 Ca2+ flux assay, neuro-2a cells transiently transfected with α4β2 nAChRs; format: cell-based
T1 construct: expressed in transfected cells; host or cells: mouse neuroblastoma-2a (neuro-2a) cells, transient transfection with Lipofectamine 3000

hTRPM8 = system: hTRPM8; parameters: method as in PMID 31850745; conditions: cited from earlier work
[1] = reported; ref 1 (supplement); cited from earlier work
C57BL/6J mice = assay: Conditioned place preference (CPP) assay; format: in vivo, mouse
Procedure: CPP assays were completed in a three-chamber spatial place preference chamber (Harvard Apparatus, PanLab, dimensions: 47.5 × 27.5 × 47.5 cm) using male and female C57BL/6J mice. Time in chambers was recorded by motion tracking software (SMART 3.0). […] On day 1, a pre-test was completed wherein mice were placed in the central chamber and allowed free access to the apparatus for 20 min. Mice that spent >65% of the test in one chamber were excluded and the remaining mice were counterbalanced. For counterbalancing, mice were separated into groups of approximately equal bias, similar to previously published CPP methods. No exclusions were necessary for these studies. Following counterbalancing, no initial biases were noted. The mice received their designated drug injections on days 2, 4, 6, and 8, and received saline injections on days 3, 5, 7, and 9. Each conditioning period lasted 20 min. On day 10, a post-test was completed whereby the mice were again placed in the central chamber and allowed free access for 20 min. In total, 5 male and 5 female C57BL/6J mice, 3–5 months old, were used in the CPP assays for each treatment group. Time spent in the saline-paired chamber was subtracted from time spent in the drug-paired chamber to score the pre-test and post-test. CPP score (or change from baseline) was determined by subtracting the pre-test score from the post-test score. A significant positive CPP score is indicative of reward-related behavior, while a significant reduction is indicative of aversion-related behavior.
No sex differences were observed and data for males and females were combined (see Results for specifics). Data are expressed as a change in baseline preference, which was analyzed using a one-way ANOVA with a post hoc Tukey.

[2] = Stability in mouse liver microsomes; format: in vitro ADME
Procedure: Mouse Liver Microsome Assays. These assays were carried out as detailed previously.

MDR1 = assay: in vitro; conditions: dog; for efflux ratio at 120 min, 5 μM: MDCK-MDR1, pH 7.4; for recovery at 120 min, 5 μM: MDCK-MDR1, pH 7.4, Recovery (%), pH 7.4, 120 minutes
Procedure: (§1) MDR1-MDCK Permeability. Pharmacokinetic experiments with compounds were performed by Absorption Systems (Exton, PA, USA). MDR1-MDCK cell monolayers were grown to confluence on collagen-coated, microporous membranes in 12-well assay plates. The permeability assay buffer was Hanks’ balanced salt solution containing 10 mM HEPES and 15 mM glucose at a pH of 7.4. The buffer in the receiver chamber also contained 1% bovine serum albumin. The dosing solution concentration was 5 […]
(§2) μM of test article in the assay buffer. Cell monolayers were dosed on the apical side (A-to-B) or basolateral side (B-to-A) and incubated at 37°C with 5% CO2 in a humidified incubator. Samples were […]
(§3) chambers at 0 and 120 minutes; samples were taken from the receiver chambers at 120 minutes. Each determination was performed in duplicate. The flux of lucifer yellow was also measured post-experimentally for each monolayer to ensure no damage was inflicted to the cell monolayers during the flux period. All samples were assayed by LC-MS/MS using electrospray ionization. Analytical conditions were carried out as previously described (REF:Journigan ACS CN 2020). The apparent permeability (Papp) and percent recovery were calculated as follows:
(§4) Papp = (dCr /dt) × Vr/(A × C0) (1)
(§5) Percent Recovery = 100 × ((Vr × Crfinal) + (Vd × Cd final))/(Vd × C0) (2) […]
(§6) dCr /dt is the slope of the cumulative receiver concentration versus time in M sµ -1;
(§7) Vr is the volume of the receiver compartment in cm3;
(§8) Vd is the volume of the donor compartment in cm3;
(§9) A is the area of the insert (1.13 cm2 for 12-well);
(§10) C0 is the measured concentration of the donor chamber at time 0 in μM;
(§11) Crfinal is the cumulative receiver concentration in μM at the end of the incubation period; Cdfinal is the concentration of the donor in μM at the end of the incubation period.
(§12) Efflux ratio (ER) is defined as Papp (B-to-A) / Papp (A-to-B).
(§13) Brain Penetration Potential Classification:
(§14) Papp (A-to-B) ≥ 3.0 and ER < 3.0: High
(§15) Papp (A-to-B) ≥ 3.0 and 10 > ER ≥ 3.0: Moderate

[3] = system: MDR1-MDCK cell monolayers; assay: in vitro
Procedure: as §1, §2, §3, §4, §5, §6, §7, §8, §9, §10, §11, §12, §13, §14, §15

[4] = in the presence of 100 µM nicotine

T1 sequence (O70174 31-629): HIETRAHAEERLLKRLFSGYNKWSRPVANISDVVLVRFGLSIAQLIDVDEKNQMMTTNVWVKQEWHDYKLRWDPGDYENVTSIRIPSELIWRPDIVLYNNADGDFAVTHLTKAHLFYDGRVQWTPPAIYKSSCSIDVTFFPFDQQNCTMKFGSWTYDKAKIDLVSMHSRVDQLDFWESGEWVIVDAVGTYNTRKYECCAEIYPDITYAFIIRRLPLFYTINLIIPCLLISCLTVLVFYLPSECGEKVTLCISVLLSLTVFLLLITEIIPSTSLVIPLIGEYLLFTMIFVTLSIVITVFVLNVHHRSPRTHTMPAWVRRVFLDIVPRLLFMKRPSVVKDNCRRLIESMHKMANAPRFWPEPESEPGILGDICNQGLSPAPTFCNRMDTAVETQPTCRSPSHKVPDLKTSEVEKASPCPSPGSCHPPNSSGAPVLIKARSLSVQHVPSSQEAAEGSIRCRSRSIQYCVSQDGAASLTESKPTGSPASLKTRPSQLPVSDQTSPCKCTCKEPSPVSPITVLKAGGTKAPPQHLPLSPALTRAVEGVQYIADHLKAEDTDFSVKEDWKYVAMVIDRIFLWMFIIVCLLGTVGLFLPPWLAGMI
T1 sequence (Q9ERK7 26-501): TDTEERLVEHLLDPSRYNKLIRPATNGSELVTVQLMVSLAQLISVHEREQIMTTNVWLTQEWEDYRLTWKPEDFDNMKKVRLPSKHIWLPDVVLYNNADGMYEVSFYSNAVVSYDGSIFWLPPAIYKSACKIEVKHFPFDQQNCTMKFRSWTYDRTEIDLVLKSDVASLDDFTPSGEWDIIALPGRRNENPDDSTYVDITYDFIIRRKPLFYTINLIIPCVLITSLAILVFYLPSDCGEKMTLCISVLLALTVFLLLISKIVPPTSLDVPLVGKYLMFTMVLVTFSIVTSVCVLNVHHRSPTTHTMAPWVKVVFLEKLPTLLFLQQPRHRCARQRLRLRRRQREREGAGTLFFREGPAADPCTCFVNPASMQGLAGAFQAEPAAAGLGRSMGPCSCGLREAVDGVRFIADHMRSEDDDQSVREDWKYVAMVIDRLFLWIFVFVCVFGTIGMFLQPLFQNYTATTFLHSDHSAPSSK

SMILES: O=C(NC(C1CCCCC1)C1CCCCC1)c1ccc(-c2ccccc2)cc1 [VBJ098]
- activity as an agonist, PM, or antagonist (mouse α4β2 nAChRs; α4β2 nAChRs): no activity

SMILES: O=C(NC1CCCCC1)c1ccc(-c2ccccc2)cc1 [VBJ032]
- IC50 (hTRPM8): 49000 ± 1000 nM
- concentration at which maximum increase occurs (mouse α4β2 nAChRs; [4]): 50 µM

SMILES: CN1CCC[C@H]1c1cccnc1 [nicotine, Nicotine ditartrate dihydrate, reference compound]
- T1/2 of nicotine in mice [1]: 6 to 7 min
- place preference (in words) (C57BL/6J mice; 0.5 mg/kg nicotine, males and females combined, post hoc Tukey): significant place preference
- CPP score (C57BL/6J mice; female mice, 0.5 mg/kg nicotine, intraperitoneal): 127.5
- CPP score (C57BL/6J mice; male mice, 0.5 mg/kg nicotine, intraperitoneal): 131.2

SMILES: O=C(NC1CCc2ccccc2C1)c1ccc(-c2ccccc2)cc1 (stereo not drawn) [VBJ109]
- IC50 (hTRPM8): 52 ± 1 nM
- concentration at which maximum increase occurs (mouse α4β2 nAChRs; [4]): 50 µM

SMILES: O=C(NC1CCC2CCCCC2C1)c1ccc(-c2ccccc2)cc1 (stereo not drawn) [VBJ104]
- IC50 (hTRPM8): 6 ± 1 nM
- half-life ([2]; mouse, microsomes): 11.3 min
- microsomal CLint ([2]; mouse, microsomes): 122 µL/min/mg
- remaining at 0 h ([2]; mouse, microsomes): 100%
- remaining at 10 min ([2]; mouse, microsomes): 40.8%
- remaining at 20 min ([2]; mouse, microsomes): 30.7%
- remaining at 0.5 h ([2]; mouse, microsomes): 22.5%
- remaining at 1 h ([2]; mouse, microsomes): 10.3%
- reward-related behavior (in words) (C57BL/6J mice; 0.5 mg/kg nicotine plus 0.5 mg/kg VBJ104, compared to nicotine, p < 0.05): significant increase in reward-related behavior
- reward-related behavior (in words) (C57BL/6J mice; 0.5 mg/kg nicotine plus 1.0 mg/kg VBJ104, p < 0.0001 vs saline, not vs nicotine alone): significant CPP compared to saline
- CPP score (C57BL/6J mice; female mice, 0.5 mg/kg nicotine plus 0.5 mg/kg VBJ104, intraperitoneal): 269.8
- CPP score (C57BL/6J mice; male mice, 0.5 mg/kg nicotine plus 0.5 mg/kg VBJ104, intraperitoneal): 261.5
- Emax (mouse α4β2 nAChRs; N2a, read-out: Max Efficacy (Normalized to 100 µM Nicotine), in the presence of 100 µM nicotine, mean ± SEM): 361%
- concentration at which maximum increase occurs (mouse α4β2 nAChRs; [4]): 100 µM
- Max Efficacy (Normalized to 100 µM Nicotine) (mouse α4β2 nAChRs; in the presence of 100 µM nicotine, mean ± SEM): 360.7 ± 37.7%
- efflux ratio at 120 min, 5 μM (MDR1): 0.685
- Papp at 120 min, 5 μM (MDR1; MDCK-MDR1, pH 7.4, Papp R2): 1.67 ×10⁻⁶ cm/s
- Papp at 120 min, 5 μM (MDR1; MDCK-MDR1, pH 7.4, Papp average): 1.79 ×10⁻⁶ cm/s
- recovery at 120 min, 5 μM (MDR1; A-to-B, 5 μM): 70.8%
- recovery at 120 min, 5 μM (MDR1; B-to-A, 5 μM): 86.9%
- Brain Penetration Classification ([3]; MDCK-MDR1): Low
- MDR1-MDCK permeability efflux ratio (in words) ([3]; MDCK-MDR1): low
- Papp average ([3]; dog, MDCK-MDR1, 120 min, 5 μM, pH 7.4): 1.22 10-6 cm/s

SMILES: C[C@H]1O[C@@H](O[C@H]2[C@@H](O)C[C@H](O[C@H]3[C@@H](O)C[C@H](O[C@H]4CC[C@@]5(C)[C@H](CC[C@@H]6[C@@H]5C[C@@H](O)[C@]5(C)[C@@H](C7=CC(=O)OC7)CC[C@]65O)C4)O[C@@H]3C)O[C@@H]2C)C[C@H](O)[C@@H]1O [digoxin, reference compound]
- efflux ratio at 120 min, 5 μM (MDR1): 299
- Papp at 120 min, 5 μM (MDR1; MDCK-MDR1, pH 7.4, Papp average, A-to-B, 5 μM): 0.0612 ×10⁻⁶ cm/s
- Papp at 120 min, 5 μM (MDR1; MDCK-MDR1, pH 7.4, Papp average, B-to-A, 5 μM): 18.3 ×10⁻⁶ cm/s

SMILES: O=C(NC1CCCCCCC1)c1ccc(-c2ccccc2)cc1 [VBJ051]
- IC50 (hTRPM8): 62 ± 1 nM
- concentration at which maximum increase occurs (mouse α4β2 nAChRs; [4]): 50 µM

SMILES: C[C@]12CC[C@H]3[C@@H](CCC4=CC(=O)CC[C@@]43C)[C@@H]1CC[C@@H]2O [testosterone, reference compound]
- half-life ([2]; mouse liver microsomes): 4.58 min
- microsomal CLint ([2]; mouse liver microsomes, read-out: CLint): 302 µL/min/mg
